From patent publication US6444670B2 (Wyeth, priority 1998, dated 2002) come the findings set out here.

The target of assay [1] is T1, Human recombinant PTP1B (hPTP1B) (Homo sapiens, UniProt P18031).
T1 construct: made in house
T1 sequence (P18031 1-435): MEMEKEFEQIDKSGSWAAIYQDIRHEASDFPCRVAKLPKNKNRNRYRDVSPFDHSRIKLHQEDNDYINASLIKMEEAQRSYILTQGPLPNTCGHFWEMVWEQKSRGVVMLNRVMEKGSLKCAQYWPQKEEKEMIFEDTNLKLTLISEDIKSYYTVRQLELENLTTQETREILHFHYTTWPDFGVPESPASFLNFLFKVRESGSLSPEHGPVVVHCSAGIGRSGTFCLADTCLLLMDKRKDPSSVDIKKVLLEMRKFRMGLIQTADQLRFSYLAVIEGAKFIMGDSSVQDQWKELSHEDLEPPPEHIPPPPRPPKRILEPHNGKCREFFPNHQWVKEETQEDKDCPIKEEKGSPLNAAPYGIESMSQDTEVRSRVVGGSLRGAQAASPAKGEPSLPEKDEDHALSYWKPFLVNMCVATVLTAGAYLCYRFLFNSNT
Type of assay: biochemical.

In assay [2] the test system is rat hepatic microsomal PTPases. The following applies: 50 μM compound.

A word on the IC50: it is the midpoint of a concentration-inhibition curve. “9-Bromo-4-(3-bromo-methoxy-5-nitro-phenyl)-2,3-dimethyl-naphtho[2,3-b]thiophene [Example 57]”: the IC50 in assay [1] was 1.9 µM.

As to `Cc1sc2c(Br)c3ccccc3c(-c3cc(N)c(O)c(Br)c3)c2c1C` [Example 23, 2-Amino-6-bromo-4-(9-bromo-2,3-dimethyl-naphtho[2,3-b]thiophen-4-yl)-phenol], the IC50 in assay [1] was determined as 0.743 µM. Also, the “% Change from Control” value in assay [2] is recorded as −26.11%.

`Cc1sc2c(Sc3ccccc3)c3ccccc3c(-c3cc(Br)c(O[C@H](C)C(=O)O)c(Br)c3)c2c1C` [Example 34, (R)-2-[2,6-Dibromo-4-(2,3-dimethyl-9-phenylsulfanyl-naphtho[2,3-b]thiophen-4-yl)-phenoxy]-propionic acid]: the IC50 in assay [1] stood at 0.1 µM. For the same compound, the “% Change from Control” value in assay [2] is on record as −63.01%.

As to `Cc1c(CN2CCOCC2)sc2c(Br)c3ccccc3c(-c3cc(Br)c(OC(C)C(=O)O)c(Br)c3)c12` (stereo not shown) [Example 36, 2-[2,6-Dibromo-4-(9-bromo-3-methyl-2-morpholin-4-ylmethyl-naphtho[2,3-b]thiophen-4-yl)-phenoxy]-propionic acid], the IC50 in assay [1] worked out at 1.34 µM. For the same compound, the “% Change from Control” value in assay [2] is given as −67.00%.

Consider `CCN(CC)Cc1sc2c(Br)c3ccccc3c(-c3cc(Br)c(O[C@H](Cc4ccccc4)C(=O)O)c(Br)c3)c2c1C` [Example 37, (R)-2-[2,6-Dibromo-4-(9-bromo-2-diethylaminomethyl-3-methyl-naphtho[2,3-b]thiophen-4-yl)-phenoxy]-3-phenyl-propionic acid], for which, in assay [1], the IC50 worked out at 0.352 µM. The “% Change from Control” value in assay [2] is reported as −49.83%.

Regarding `Cc1sc2c(Br)c3ccccc3c(-c3cc(Br)c(OC(Cc4ccccc4)C(=O)O)c([N+](=O)[O-])c3)c2c1C` (stereo not shown) [Example 38, [2-Bromo-4-(9-bromo-2,3-dimethyl-naphtho[2,3-b]thiophen-4-yl)-2-nitro-phenoxy]-3-phenyl-propionic acid], the IC50 in assay [1] was 0.299 µM. In addition, the “% Change from Control” value in assay [2] is −57.74%.

Turning to `Cc1sc2cc3ccccc3c(-c3ccc(O[C@H](Cc4ccccc4)C(=O)O)c(C(C)C)c3)c2c1C` [Example 41, (R)-2-[4-(2,3-dimethyl-naphtho[2,3-b]thiophen-4-yl)-2-isopropyl-phenoxy]-3-phenyl-propionic acid], the IC50 in assay [1] was 0.729 µM. In assay [2], the “% Change from Control” value is −39.60%.

Consider `Cc1sc2cc3ccccc3c(-c3ccc(O[C@H](Cc4ccccc4)C(=O)O)c(C4CCCC4)c3)c2c1C` [Example 45, (R)-2-[2-Cyclopentyl-4-(2,3-dimethyl-naphtho[2,3-b]thiophen-4-yl)-phenoxy]-3-phenyl-propionic acid], for which the IC50 in assay [1] worked out at 0.203 µM. Moreover, the “% Change from Control” value in assay [2] is −94.50%.

Consider `Cc1cc(-c2c3ccccc3cc3sc(C)c(C)c23)cc(C)c1O[C@H](Cc1ccccc1)C(=O)O` [Example 46, (R)-2-[4-(2,3-Dimethyl-naphtho[2,3-b]thiophen-4-yl)-2,6-dimethyl-phenoxy]-3-phenyl-propionic acid], for which, in assay [1], the IC50 was determined as 1.19 µM. The “% Change from Control” value in assay [2] is listed as −91.00%.

As for `Cc1sc2c(Br)c3ccccc3c(-c3ccc(O[C@H](Cc4ccccc4)C(=O)O)c(C4CCCC4)c3)c2c1C` [Example 47], the IC50 in assay [1] was determined as 0.095 µM. Moreover, the “% Change from Control” value in assay [2] is −68.48%.

Consider `Cc1sc2cc3ccccc3c(-c3cc(C(C)C)c(O[C@H](Cc4ccccc4)C(=O)O)c(C(C)C)c3)c2c1C` [Example 50, (R)-2-[4-(2,3-Dimethyl-naphtho[2,3-b]thiophen-4-yl)-2,6-diisopropyl-phenoxy]-3-phenyl-propionic acid], for which, in assay [1], the IC50 turned out to be 0.457 µM. The “% Change from Control” value in assay [2] is given as −81.27%.

With `Cc1sc2cc3ccccc3c(-c3ccc(O[C@H](Cc4ccccc4)C(=O)O)c(F)c3)c2c1C` [Example 51, (R)-2-[4-(2,3-Dimethyl-naphtho[2,3-b]thiophen-4-yl)-2-fluoro-phenoxy]-3-phenyl-propionic acid], the IC50 in assay [1] is 2.21 µM.

As to `Cc1sc2c(Br)c3ccccc3c(-c3ccc(O[C@H](Cc4ccccc4)C(=O)O)c(F)c3)c2c1C` [Example 52, (R)-2-[4-(9-Bromo-2,3-dimethyl-naphtho[2,3-b]thiophen-4-yl)-2-fluoro-phenoxy]-3-phenyl-propionic acid], the IC50 in assay [1] is 0.287 µM. For the same compound, in assay [2], the “% Change from Control” value is listed as −87.66%.

As to `Cc1oc2cc3ccccc3c(-c3cc(Br)c(O[C@H](Cc4ccccc4)C(=O)O)c(Br)c3)c2c1C` [Example 54, (2R)-2-[2,6-Dibromo-4-(2,3-dimethyl-naphtho[2,3-b]furan-4-yl)-phenoxy]-3-phenyl-propionic acid], the IC50 in assay [1] worked out at 0.982 µM.

Turning to `Cc1sc2c(Br)c3ccccc3c(-c3cc(C(C)C)c(O[C@H](Cc4ccccc4)C(=O)O)c(C(C)C)c3)c2c1C` [Example 55, (2R)-2-[4-(9-Bromo-2,3-dimethyl-naphtho[2.3-b]thiophen-4-yl)-2,6-diisopropyl-phenoxy]-3-phenyl-propionic acid], the IC50 in assay [1] is 0.059 µM.

Take `Cc1cc(-c2c3ccccc3c(Br)c3sc(C)c(C)c23)cc(C)c1O[C@H](Cc1ccccc1)C(=O)NCC(=O)O` [Example 62, {(2R)-2-[4-(9-Bromo-2,3-dimethyl-naphtho[2,3-b]thiophen-4-yl)-2,6-dimethyl-phenoxy]-3-phenyl-propionylamino}-acetic acid]: in assay [1], the IC50 was found to be 0.028 µM.

As to `CCc1cc(-c2c3ccccc3c(Br)c3sc(C)c(C)c23)cc(CC)c1O[C@H](Cc1ccccc1)C(=O)NCC(=O)O` [Example 63, {(2R)-2-[4-(9-Bromo-2,3-dimethyl-naphtho[2,3-b]thiophen-4-yl)-2,6-diethyl-phenoxy]-3-phenyl-propionylamino}-acetic acid], in assay [1], the IC50 amounted to 0.138 µM.

As for `Cc1sc2c(Br)c3ccccc3c(-c3ccc(O[C@H](Cc4ccccc4)C(=O)O)cc3)c2c1C` [Example 64, (2R)-2-[4-(9-Bromo-2,3-dimethyl-naphtho[2,3-b]thiophen-4-yl)-phenoxy]-3-phenyl-propionic acid], the IC50 in assay [1] was determined as 0.39 µM.

Turning to `CCc1cc(-c2c3ccccc3cc3sc(C)c(C)c23)cc(CC)c1O[C@H](Cc1ccccc1)C(=O)NCC(=O)O` [Example 68, {(2R)-2-[4-(2,3 -Dimethyl-naphtho[2,3-b]thiophen-4-yl)-2,6-diethyl-phenoxy]-3-phenyl-propionylamino}-acetic acid], the IC50 in assay [1] amounted to 0.08 µM.

On to `CCc1cc(-c2c3ccccc3c(Br)c3oc(C)c(C)c23)cc(CC)c1O[C@H](Cc1ccccc1)C(=O)O` [Example 70, (R)-2-[4-(9-Bromo-2-,3-dimethyl-naphtho[2,3-b]furan-4-yl)-2.6-diethyl-phenoxy]-3-phenyl-propionic acid], for which the IC50 in assay [1] was 0.33 µM.

As to `Cc1sc2cc3ccccc3c(-c3ccc(O[C@H](C)C(=O)O)c(C4CCCC4)c3)c2c1C` [Example 71, (R)-2-[2-Cyclopentyl-4-(2-,3-dimethyl-naphtho[2,3-b]thiophen-4-yl)-phenoxy]-propionic acid], the half-inhibitory concentration (IC50) in assay [1] came out at 1.19 µM.

For the compound `Cc1sc2c(Br)c3ccccc3c(-c3ccc(O[C@H](C)C(=O)O)c(C4CCCC4)c3)c2c1C` [Example 72, (R)-2-[4-(9-Bromo-2-,3-dimethyl-naphtho[2,3-b]thiophen-4-yl)-2-cyclopentyl-phenoxy]-propionic acid], the IC50 in assay [1] was found to be 0.48 µM.

Consider `CCc1cc(-c2c3ccccc3cc3sc(C)c(C)c23)ccc1O[C@H](Cc1ccccc1)C(=O)O` [Example 76, (R)-2-[4-(2-,3-Dimethyl-naphtho[2,3-b]thiophen-4-yl)-2-ethyl-phenoxy]-3-phenyl-propionic acid], for which, in assay [1], the IC50 amounted to 0.45 µM.

`CCc1cc(-c2c3ccccc3cc3oc(C)c(C)c23)cc(Br)c1O` [Example 78, 2-Bromo-4-(2-,3-dimethyl-naphtho[2,3-b]furan-4-yl)-6-ethyl-phenol]: the IC50 in assay [1] came out at 0.27 µM.

Turning to `CCc1cc(-c2c3ccccc3cc3oc(C)c(C)c23)cc(Br)c1O[C@H](Cc1ccccc1)C(=O)O` [Example 79, (R)-2-[2-Bromo-4-(2-,3-dimethyl-naphtho[2,3-b]furan-4-yl)-6-ethyl-phenoxy]-3-phenyl-propionic acid], the IC50 in assay [1] turned out to be 0.78 µM.

As for `CCCc1cc(-c2c3ccccc3c(Br)c3sc(C)c(C)c23)ccc1O[C@H](Cc1ccccc1)C(=O)O` [Example 83, (R)-2-[4-(9-Bromo-2-,3-dimethyl-naphtho[2,3-b]thiophen-4-yl)-2-propyl-phenoxy]-3-phenyl-propionic acid], the IC50 in assay [1] was 0.13 µM.

With `CCN(CC)Cc1sc2c(Br)c3ccccc3c(-c3cc(C(C)C)c(O[C@H](Cc4ccccc4)C(=O)O)c(C(C)C)c3)c2c1C` [Example 88, (2R)-2-[4-(9-Bromo-2-diethylaminomethyl-3-methyl-naphtho[2,3-b]thiophen-4-yl)-2,6-diisopropyl-phenoxy]-3-phenyl-propionic acid], the IC50 in assay [1] turned out to be 0.32 µM.

With “Ammonium molybdate tetrahydrate [reference compound]”, the IC50 in assay [1] came to 8.7 µM.

For the compound “[2-Bromo-4-(9-bromo-2,3-dimethyl-naphtho[2,3-b]thiophen-4-yl)-2-nitro-phenoxy]-acetic acid [Example 24]”, the “% Change from Control” value in assay [2] is recorded as −65.31%.
